Laboratory results as given in PubChem BioAssay (NCI).
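Each compound was tested at five concentrations against cells in 96-well plates for 48 hours. Abbreviation: GI50, concentration required for 50% inhibition of growth. TGI is the concentration that stops growth completely.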

What was measured:
Experiment in all cases: NCI-60 cell line screen, 48 h
A549 NSCLC = test system: A549 NSCLC
ACHN renal = test system: ACHN renal
CCRF-CEM leukemia = test system: CCRF-CEM leukemia
COLO 205 colon = test system: COLO 205 colon
HT29 colon = test system: HT29 colon
K-562 leukemia = test system: K-562 leukemia
MCF7 breast = test system: MCF7 breast
NCI-H226 lung = test system: NCI-H226 lung
NCI-H522 lung = test system: NCI-H522 lung
OVCAR-4 ovarian = test system: OVCAR-4 ovarian

SMILES	GI50 (A549 NSCLC)	TGI (A549 NSCLC)	GI50 (ACHN renal)	TGI (ACHN renal)	GI50 (CCRF-CEM leukemia)	TGI (CCRF-CEM leukemia)	GI50 (COLO 205 colon)	TGI (COLO 205 colon)	GI50 (HT29 colon)	TGI (HT29 colon)	GI50 (K-562 leukemia)	TGI (K-562 leukemia)	GI50 (MCF7 breast)	TGI (MCF7 breast)	GI50 (NCI-H226 lung)	TGI (NCI-H226 lung)	GI50 (NCI-H522 lung)	TGI (NCI-H522 lung)	GI50 (OVCAR-4 ovarian)	TGI (OVCAR-4 ovarian)
CC[C@H](CO)Nc1nc(NCc2ccccc2)n2ncc(C(C)C)c2n1	1.58 µM	41.4 µM	0.808 µM	10.7 µM	0.648 µM	9.26 µM	1.12 µM	3.15 µM	2 µM	15.5 µM	2.44 µM	7.38 µM	0.592 µM	7.99 µM	1.84 µM	10.1 µM	1.46 µM	8.98 µM	2.58 µM	37 µM
CN(/N=C/c1cccc2cccnc12)c1ccccc1		> 100 µM		> 100 µM		> 100 µM		> 100 µM		> 100 µM		> 100 µM				> 100 µM		> 100 µM		> 100 µM
C[C@]12CCC3[C@@H](CC[C@@H]4c5nonc5CC[C@]34C)C1C/C(=N/O)C2=O (some centres undefined)		> 100 µM		> 100 µM		> 100 µM		> 100 µM		> 100 µM		> 100 µM				> 100 µM		> 100 µM		> 100 µM
COC(=O)CCC(NC(=S)N/N=C/c1ccco1)C(=O)OC (centres undefined)		> 100 µM		> 100 µM		> 100 µM		> 100 µM		> 100 µM		> 100 µM				> 100 µM		> 100 µM		> 100 µM
O=S1(=O)OCCOS(=O)(=O)C1Cc1ccccc1		> 100 µM		> 100 µM				34.8 µM		> 100 µM		> 100 µM				> 100 µM		> 100 µM		> 100 µM
CCc1cccc(C)c1NC(=O)C(=O)Cc1nc2ccccc2s1		> 100 µM		> 100 µM		> 100 µM		> 100 µM		> 100 µM		> 100 µM				> 100 µM		> 100 µM		> 100 µM
COc1ccc(/C=C2\S/C(=N/Nc3nc(-c4ccccc4)cs3)NC2=O)cc1OC		> 100 µM		> 100 µM		22.3 µM		> 100 µM						> 100 µM				47.4 µM		98.1 µM
COc1ccc(OC)c(NC(=O)CCC/C(CC(=O)c2ccc(O)c(OC)c2)=N\Nc2ccc([N+](=O)[O-])cc2)c1		> 100 µM		> 100 µM		> 100 µM		> 100 µM		> 100 µM		> 100 µM				> 100 µM		> 100 µM		> 100 µM
COc1ccc(C(=O)C(c2ccc(OC)cc2)C2(O)C(=O)Nc3c2ccc(Cl)c3C)cc1 (centres undefined)		> 100 µM		> 100 µM		> 100 µM		> 100 µM		> 100 µM		> 100 µM				> 100 µM		> 100 µM		> 100 µM
C1=C2/CC[C@H](Sc3ccccc3)[C@H]2C2(CCCCC/1)OCCO2		> 100 µM		> 100 µM		66.4 µM		38.2 µM		> 100 µM		> 100 µM						39.6 µM		
C/C(CC(=O)Nc1ccc(Cl)cc1)=N\NC(N)=S		> 100 µM		> 100 µM		> 100 µM		> 100 µM		> 100 µM		> 100 µM						> 100 µM		
Cc1ccc(N2C(=O)C3C=CC(n4[nH]c(=O)n(Cc5ccccc5)c4=O)CC3C2=O)cc1 (centres undefined)		> 100 µM		> 100 µM		> 100 µM		> 100 µM		> 100 µM		> 100 µM				> 100 µM		> 100 µM		
CCOC(=O)NC(=O)c1cn(CCCCCCOC(=O)NCCCCCCNC(=O)OCCCCCCn2cc(C(=O)NC(=O)OCC)c(=O)[nH]c2=O)c(=O)[nH]c1=O		> 100 µM		> 100 µM		> 100 µM		> 100 µM		> 100 µM		> 100 µM				> 100 µM		> 100 µM		> 100 µM
Cc1cccc(C(C)C)c1NC(=O)CC1C(=O)Nc2ccccc2S1(=O)=O (centres undefined)		39.3 µM		> 58.2 µM		30.2 µM		> 100 µM		26.8 µM		10.3 µM				49.9 µM		31.5 µM		29 µM
CC(C)c1cccc2sc(NC(=O)C(=O)C(C#N)c3cccc4ccccc34)nc12 (centres undefined)		> 100 µM		> 100 µM		> 100 µM		> 100 µM		> 100 µM						> 100 µM		> 100 µM		> 100 µM
CCSCCCN(CCCSCC)CCCSCC		> 100 µM				> 100 µM		> 100 µM		> 100 µM		> 100 µM		> 100 µM				> 100 µM		> 100 µM
COc1ccc(/C=N/N=C(\N)NO)c(OC)c1		> 100 µM		> 100 µM		> 100 µM		> 100 µM				> 100 µM				> 100 µM				> 100 µM
COc1cc([C@H]2OC[C@H]3[C@@H]2CO[C@@H]3c2cc(OC)c3c(c2)OCO3)cc(OC)c1OC		> 100 µM		> 100 µM				> 100 µM		> 100 µM		> 100 µM		> 100 µM		> 100 µM		> 100 µM		> 100 µM
O=C(c1ccccc1)c1cccc(C(=O)c2ccccc2)c1		> 100 µM		> 100 µM		> 100 µM		> 100 µM		> 100 µM		> 100 µM				> 100 µM		> 100 µM		> 100 µM
CCOC(=O)NC(=O)c1cn(CCN2CCN(c3ncnc4nc[nH]c34)CC2)c(=O)[nH]c1=O		> 100 µM		> 100 µM		> 100 µM		> 100 µM		> 100 µM		> 100 µM				> 100 µM		> 100 µM		
CC1(C)C2C=CC1(C)C1(CC2)OCCO1 (centres undefined)				> 100 µM		> 100 µM		> 100 µM		> 100 µM		> 100 µM		> 100 µM		> 100 µM				> 100 µM
COc1ccc(C2=NN(c3ccccc3)C[N+](c3ccc(OC)cc3)=N2)cc1		> 100 µM		> 100 µM		83.4 µM				> 100 µM		63.1 µM				64.6 µM		30 µM		64 µM
